Reference: PubChem BioAssay (NCI)
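96-well plates; 48 h exposure; 5 concentrations. Endpoints by linear interpolation between flanking doses. Not reached: highest tested concentration assigned. GI50 marks 50% less growth. TGI: concentration producing complete growth inhibition.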

What was measured:
Test in all cases: NCI-60 cell line screen, 48 h
A549 NSCLC = system: A549 NSCLC
COLO 205 colon = system: COLO 205 colon
IGROV1 ovarian = system: IGROV1 ovarian
NCI-H522 lung = system: NCI-H522 lung
OVCAR-3 ovarian = system: OVCAR-3 ovarian
SF-268 CNS = system: SF-268 CNS
SF-295 CNS = system: SF-295 CNS
SN12C renal = system: SN12C renal
T-47D breast = system: T-47D breast
UACC-257 melanoma = system: UACC-257 melanoma

Row | SMILES | GI50 (A549 NSCLC) [µM] | TGI (A549 NSCLC) [µM] | GI50 (COLO 205 colon) [µM] | TGI (COLO 205 colon) [µM] | GI50 (IGROV1 ovarian) [µM] | TGI (IGROV1 ovarian) [µM] | GI50 (NCI-H522 lung) [µM] | TGI (NCI-H522 lung) [µM] | GI50 (OVCAR-3 ovarian) [µM] | TGI (OVCAR-3 ovarian) [µM] | GI50 (SF-268 CNS) [µM] | TGI (SF-268 CNS) [µM] | GI50 (SF-295 CNS) [µM] | TGI (SF-295 CNS) [µM] | GI50 (SN12C renal) [µM] | TGI (SN12C renal) [µM] | GI50 (T-47D breast) [µM] | TGI (T-47D breast) [µM] | GI50 (UACC-257 melanoma) [µM] | TGI (UACC-257 melanoma) [µM]
1 | COC(=O)CCCCCCCCC(=O)c1c(C)[nH]c(/C=C2\N=C(c3ccc[nH]3)C=C2OC)c1C | 5.18 | > 50.2 | > 100 | > 100 | > 67.3 | > 100 | 8.55 | > 69.9 | > 48.1 | > 86.3 | > 20.6 | > 100 | > 58.8 | > 100 | > 53.8 | > 100 | > 48.1 | > 89.3 | 14.4 | 87.8
2 | c1ccc(-c2nn(-c3ccccc3)[n+](-c3ccccc3-c3ccccc3)n2)cc1 | 1.07 | > 100 | 0.205 | 0.856 | 0.868 | 16.3 | 0.478 | 8.18 | 0.416 | 15.5 | 1.71 | > 47.7 | 1.94 | 8.99 | 1.82 | 15.5 | 0.974 | > 42.1 | 0.339 | 2.72
3 | Cc1cncc2cccc(S(=O)(=O)N3CCCNC[C@@H]3C)c12 | 14.6 | > 100 | 2.85 | 18.8 | 48.8 | > 100 | > 23.1 | > 100 | 58.9 | > 100 | 4.91 | > 81.8 | 4.46 | > 100 | 24.8 | > 100 | > 80.3 | > 100 | > 100 | > 100
4 | CCN(CC)CCn1nc2c3c(cccc3c1=O)-c1ccccc1-2 | 1.05 | 19.8 | 1.86 | 10.2 | 2.06 | > 50 | 2.21 | 9.84 | 3.78 | 45.2 | 2.87 | 21.3 | 1.39 | 7.45 | 2.07 | > 50 | 2.06 | 27 | 1.96 | 10.7
5 | Nc1ccc(Sc2ccc3c4c2cccc4c(=O)n2c4ccccc4nc32)cc1 | 2.17 | 12.9 | 7.24 | 27.2 | 3.9 | 32 | 3.99 | 36.8 | 6.4 | 24.4 | 5.42 | 80.2 | 2.38 | 8.01 | 2.61 | 19.7 | 3.87 | 33.4 | 11.8 | 43.5
6 | N#CSc1cc(-c2nc3ccccc3o2)ccc1N | 2.42 | > 53 | 40.5 | > 100 | 27.2 | > 70.1 | > 40.9 | > 64.6 | 17.9 | > 56.7 | 22.6 | 83.4 | 17.1 | > 74.1 | 15.8 | 43.1 | 7.5 | 90 | 1.77 | 26.4
7 | COc1ccc(C2C3=C(COC3=O)N(CCO)c3cc4c(cc32)CCC4)cc1OC (stereo not drawn) | 1.13 | > 50 | 0.533 | 7.71 | 0.274 | > 42.7 | 0.514 |  | 0.127 | 0.332 | 1.78 | > 50 | 0.171 | 1.31 | 3.41 | > 50 | 0.797 | > 50 | > 50 | > 50
8 | CCN(CC)Cc1cc(Nc2c3ccc(Cl)cc3nc3c(C)cccc23)ccc1O | 1.64 | 4.64 | 1.23 | 2.6 | 0.56 | 1.78 | 0.585 | 1.92 | 1.97 | 3.73 | 1.53 | 3.09 | 1.78 | 3.34 | 1.36 | 2.92 | 2.09 | 4.08 | 1.99 | 3.62
9 | CCCCOc1nc2ccccc2cc1C1CNC(=O)c2ccccc2N1 (stereo not drawn) | 4.25 | 15.9 | 2.39 | 5.63 | 4.63 | 22.9 | 2.75 | 21.2 | 1.56 | 3.86 | 4.24 | > 48.5 | 1.63 | 8.49 | 3.77 | 18.9 | 5.55 | > 100 | 8.16 | > 100
10 | CCc1cc(Nc2nccc(-c3c(-c4ccc(OC)c(C(=O)Nc5c(F)cccc5F)c4)nc4ccccn34)n2)c(OC)cc1N1CCC(N2CCN(S(C)(=O)=O)CC2)CC1 | > 48.3 | > 100 |  | > 100 | > 100 | > 100 | > 100 | > 100 | > 100 | > 100 | > 100 | > 100 | > 100 | > 100 | > 100 | > 100 | > 100 | > 100 | > 40.1 | > 100
